Results as given in patent US9169268B2, “Use of 7-alkoxy fangchinoline compounds in preventing, alleviating and/or treating depression” (Peking University, priority 2012, dated 2015).

Key:
[1] = tested on: chronic unpredictable stress (CUS) model in rats; experiment: Autonomous movement in CUS model in rats; type: in vivo; settings: 7 days
Method: (§1) The chronic unpredictable stress model is usually used as a depression model. The experimental method is as follows. Stimulation includes forced swimming (10° C., 6 min), tail clamping (1 cm from the tail tip, 1 min), water deprivation (24 h), fasting (24 h), isolated housing (24 h), tail suspension (1 h), immobility (2 h), high-speed horizontal oscillation (120 times/min, 1 h), foot shock for 45 minutes (mean 1 mA, time course 1 s, once/min). These stressors were randomly scheduled over a one-week period and repeated throughout the 23-day experiment. The non-stress control group was housed under normal conditions. Time: between 9:00 a.m. and 2:00 p.m. Since Day 15, the animals in each group were daily intragastrically administered with the subject medicament and double distilled water based on body weight (blank group and CUS model group) respectively, 60 minutes before the stress. […] Behavior and sleep electroencephalogram analyses were carried out on Day 22-23 of the stress. On Day 21, 60 minutes after the final administration, a sucrose solution intake test was carried out and sleep electroencephalogram was recorded simultaneously. On Day 22, EPM and forced swimming tests were carried out.

[2] = Serum AST and ALT in mice after 14 days of intragastric administration; type: in vivo
Method: Blood was collected from epicanthal, stood at room temperature for about 2 hours, and centrifuged for 12 minutes at 3000 r/min after coagulation. The serum was removed and centrifuged again. Alanine transaminase (ALT) and aspartate transaminase (AST) levels were determined

[3] = tested on: chronic unpredictable stress (CUS) model in rats; experiment: Sucrose solution preference in CUS model in rats; type: in vivo; settings: 7 days
Method: as §1

GSK-3β = GSK-3β (Homo sapiens, UniProt P49841); experiment: GSK-3β activity assay (Z′-LYTE); type: biochemical; settings: n = 3; read-out: Mean EC50 in the inhibition of GSK-3β activity
Method: The GSK-3β phosphorylation level was determined by using a Z′-LYTE assay (Life Technologies). The assay was performed in a 384-well plate. The wells of the testing plate were divided into blank control wells (without the enzyme), enzyme control wells (without the testing substance), and testing wells (with the enzyme and the testing substance at various concentrations). The inhibition rate of the testing substance is expressed as: inhibition %=(E−S)/(E−B)×100, wherein E is the average emission ratio of enzyme control wells; B is the average emission ratio of blank control wells; S is the emission ratio of the testing sample wells. The median effective concentration of each compound (EC50 μM) was calculated by using the resultant inhibition rate of each sample at various concentrations.

[4] = tested on: chronic unpredictable stress (CUS) model in rats; experiment: Elevated plus-maze (EPM) anxiety test in CUS model in rats; type: in vivo
Method: as §1

[5] = mouse serum, 30 mg/kg/day intragastric, 14 days
[6] = mouse serum, 60 mg/kg/day intragastric, 14 days

GSK-3β, sequence (P49841 whole entry): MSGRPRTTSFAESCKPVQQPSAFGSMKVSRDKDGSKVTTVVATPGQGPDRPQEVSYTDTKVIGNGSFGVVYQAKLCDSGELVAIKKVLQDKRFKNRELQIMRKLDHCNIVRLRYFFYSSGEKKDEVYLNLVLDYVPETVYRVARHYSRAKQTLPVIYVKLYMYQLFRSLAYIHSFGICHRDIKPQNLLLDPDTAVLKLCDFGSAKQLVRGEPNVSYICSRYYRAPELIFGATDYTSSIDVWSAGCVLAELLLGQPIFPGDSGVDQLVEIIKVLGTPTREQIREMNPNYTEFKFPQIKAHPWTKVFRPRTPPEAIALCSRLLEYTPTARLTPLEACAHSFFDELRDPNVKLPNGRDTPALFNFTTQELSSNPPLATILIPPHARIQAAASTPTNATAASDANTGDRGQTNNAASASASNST

Row | SMILES | Autonomous movement Distance ([1]; 7.5 mg/kg intragastric daily) | Autonomous movement Speed ([1]; 7.5 mg/kg intragastric daily) | Autonomous movement Distance ([1]; 15 mg/kg intragastric daily) | Autonomous movement Speed ([1]; 15 mg/kg intragastric daily) | Autonomous movement Distance ([1]; 30 mg/kg intragastric daily) | Autonomous movement Speed ([1]; 30 mg/kg intragastric daily) | Autonomous movement Distance ([1]; 60 mg/kg intragastric daily) [mm] | Autonomous movement Speed ([1]; 60 mg/kg intragastric daily) [mm/second] | Sucrose solution preference ([3]; 7.5 mg/kg intragastric daily) [%] | Sucrose solution preference ([3]; 15 mg/kg intragastric daily) | Sucrose solution preference ([3]; 30 mg/kg intragastric daily) | Sucrose solution preference ([3]; 60 mg/kg intragastric daily) [%] | EC50 (GSK-3β) [µM] | Percentage of entries into open arms relative to total entries into arms ([4]; 30 mg/kg intragastric daily) [%] | Percentage of residence time in open arms ([4]; 30 mg/kg intragastric daily) [%] | Percentage of entries into open arms relative to total entries into arms ([4]; 60 mg/kg intragastric daily) [%] | Percentage of residence time in open arms ([4]; 60 mg/kg intragastric daily) [%] | other results
1 | COc1ccc2cc1Oc1ccc(cc1)C[C@H]1c3cc(c(OC)cc3CCN1C)Oc1c(OC)c(OC)cc3c1[C@H](C2)N(C)CC3 [tetrandrine, reference compound] | 1369.54 ± 532.47 mm | 4.57 ± 1.85 mm/second | 1124.37 ± 504.85 mm | 3.75 ± 1.98 mm/second | 1027.36 ± 456.76 mm | 3.42 ± 1.33 mm/second | 1285.41 ± 401.24 | 4.28 ± 1.56 | 55.4 ± 3.2 | 52.9 ± 3.7% | 67.7 ± 3.3 % | 70.2 ± 4.6 | 9.02 | 43.8 ± 3.2 | 41.3 ± 3.0 | 46.2 ± 2.9 | 42.8 ± 3.5 | AST activity and the AST/ALT ratio ([2]; mice, 30 mg/kg intragastric, 14 consecutive days): evidently enhanced; change in AST activity, ALT activity and the ratio thereof (AST/ALT) in blood serum ([2]; mice, 60 mg/kg intragastric, 14 consecutive days): all evidently enhanced; ALT [2, 5]: 83.8 ± 15.9 U/L; AST [2, 5]: 204.8 ± 21.8 U/L; AST/ALT [2, 5]: 2.44 ± 0.21; ALT [2, 6]: 113.2 ± 20.6 U/L; AST [2, 6]: 205.6 ± 22.8 U/L; AST/ALT [2, 6]: 1.82 ± 0.26; Percentage of entries into open arms relative to total entries into arms ([4]; 7.5 mg/kg intragastric daily): 38.0 ± 2.3%; Percentage of residence time in open arms ([4]; 7.5 mg/kg intragastric daily): 42.1 ± 3.7%; Percentage of entries into open arms relative to total entries into arms ([4]; 15 mg/kg intragastric daily): 39.5 ± 3.0%; Percentage of residence time in open arms ([4]; 15 mg/kg intragastric daily): 40.6 ± 4.8%
2 | COc1ccc2cc1Oc1ccc(cc1)CC1c3cc(c(OC)cc3CCN1C)Oc1c(OC(C)C)c(OC)cc3c1C(C2)N(C)CC3 (stereo not shown) [Compound 8, 7-isopropoxy fangchinoline] | 9968.41 ± 965.52^##,$$ mm | 33.22 ± 2.64^##,$$ mm/second | 12194.23 ± 887.65^##,$$ mm | 40.64 ± 4.02^##,$$ mm/second | 13053.78 ± 1005.46^##,$$ mm | 43.51 ± 5.36^##,$$ mm/second |  |  | 80.5 ± 3.6 | 84.7 ± 3.2^##,$ % | 90.1 ± 3.8^##,$$ % |  | 1.35 |  |  |  |  | ALT ([2]; mouse, in vivo, 60 mg/kg/day): 80.1 ± 21.3 U/L; AST ([2]; mouse, in vivo, 60 mg/kg/day): 89.2 ± 16.7 U/L
3 | COc1cc2c3cc1Oc1c(OC)c(OC)cc4c1[C@@H](Cc1ccc(O)c(c1)Oc1ccc(cc1)C[C@@H]3N(C)CC2)N(C)CC4 [berbamine, reference compound] |  |  |  |  | 1387.56 ± 584.24 mm | 4.63 ± 1.49 mm/second | 1053.45 ± 476.33 | 3.51 ± 1.65 |  |  | 55.05 ± 3.06% | 49.56 ± 4.27 | > 10 | 38.3 ± 1.9 | 41.0 ± 3.0 | 37.5 ± 1.6 | 39.6 ± 4.2 | 
